From patent publication US6552018B1, “Pyrazole derivatives” (Daiichi Pharmaceutical Co., Ltd., priority 1997, dated 2003) come the findings set out here.

≈ marks a conversion by molar mass, not a printed value. Counter-ions that a name gives are not always drawn.

Data set [1] has as its system Tumor cells PC-6. Nature of the data set: Tumor cell growth inhibition (MTT), PC-6. Type of data set: cell-based. The settings on record: Homo sapiens, 72 h, PC-6 cells, culturing for 3 days with compound, absorbance at 540 nm, read-out: GI50, concentration of the compound which showed 50% inhibition on cell growth as compared with a control group, PC-6. As to the method: (§1) Tumor cells PC-12 and PC-6, which had been serially cultured in RPMI 1640 containing 10% fetal bovine serum, 2 mM L-glutamine, and 100 μg/ml of kanamycin sulfate, were inoculated to a 96-well microplate (1.0×10^3 cells-PC-12/150 μl/well; 5.0×10^3 cells-PC-6/150 μl/well). After 24-hour incuvation, 50 μl of a preparation containing each of the compounds of Examples 5 to 8 and Example 13 (hereinafter described) in a varied concentration was added to each well, followed by culturing for 3 days. A 5 mg/ml solution of 3-(4,5-dimethylthiazol-2-yl)-2,5-diphenyl-2H-tetrazolium bromide (MTT) was added in an amount of 20 μl per well. Four hours later, the culture broth was removed, 150 μl/well of dimethyl sulfoxide was added to the residue, and the absorbance was measured at 540 nm.

The subject of data set [2] is Tumor cells PC-12. The data set can be described thus: Tumor cell growth inhibition (MTT), PC-12. The settings on record: PC-12 cells, culturing for 3 days with compound, absorbance at 540 nm; for GI50: Rattus norvegicus, PC-12, 72 h, read-out: GI50, concentration of the compound which showed 50% inhibition on cell growth as compared with a control group, PC-12. It is filed as cell-based. The procedure: as §1

As a reminder, the melting point is the temperature of the solid-liquid transition.

On to `Cc1c(/C=C/CN2CCN(c3cc(Cl)cc(Cl)c3)CC2)cnn1-c1ncccc1Cl.Cl` [Example 7], for which the GI50 in data set [1] was found to be 0.0382 µg/mL; in data set [2], 0.237 µg/mL.
For the molecule `Cc1c(/C=C/CN2CCN(c3cc(F)cc(F)c3)CC2)cnn1-c1cc(N)nc(N)n1.Cl` [Example 58, 1-[1-(2,6-Diamino-4-pyrimidinyl)-5-methyl-4-pyrazolyl]-3-[4-(3,5-difluorophenyl)-1-piperazinyl]-1-trans-propene Hydrochloride], the GI50 in data set [2] was determined as 0.0134 µg/mL.
In the case of `COc1cccnc1-n1ncc(/C=C/CN2CCN(c3cc(Cl)cc(Cl)c3)CC2)c1C.Cl` [Example 13, 3-[4-(3,5-Dichlorophenyl)-1-piperazinyl]-1-[1-(3-methoxy-2-pyridyl)-5-methyl-4-pyrazolyl]-1-trans-propene Hydrochloride], the GI50 is 0.00493 µg/mL in data set [1] and 0.0383 µg/mL in data set [2].
Turning to `Cc1c(/C=C/CN2CCN(c3cccc(Cl)c3)CC2)cnn1-c1ncccc1Cl.Cl` [Example 8, 3-[4-(3-Chlorophenyl)-1-piperazinyl]-1-[1-(3-chloro-2-pyridyl)-5-methyl-4-pyrazolyl]-1-propene Hydrochloride], the values for the GI50 in data set [1] and in data set [2] were 0.0373 µg/mL and 0.21 µg/mL, respectively.
For `Cc1c(/C=C/CN2CCN3c4ccccc4CC3C2)cnn1-c1cc(N(C)C)nc(N)n1` (racemic) [Example 72, (+/−)-2-[3-[1-(2-Amino-6-dimethylamino-4-pyrimidinyl)-5-methyl-4-pyrazolyl]-2-trans-propen-1-yl]-1,2,3,4,10,10a-hexahydropyrazino[1,2-a]indole Hydrochloride], the GI50 in data set [2] was found to be 0.035 µg/mL.
On to `Cc1c(/C=C/CN2CCN3c4cc(F)ccc4OCC3C2)cnn1-c1cc(N(C)C)nc(N)n1` (racemic) [Example 71, (+/−)-3-[3-[1-(2-Amino-6-dimethylamino-4-pyrimidinyl)-5-methyl-4-pyrazolyl]-2-trans-propen-1-yl]-9-fluoro-2,3,4,4a,5,6-hexahydro-1H-pyrazino[2,1-c]-1,4-benzoxazine Hydrochloride], for which the GI50 in data set [2] was 0.00537 µg/mL.
With `Cc1c(/C=C/CN2CCN3c4cc(F)ccc4CCC3C2)cnn1-c1cc(N(C)C)nc(N)n1` (single isomer, unassigned; isomer b) [Example 70, 3-[3-(1-(2-Amino-6-dimethylamino-4-pyrimidin-yl)-5-methyl-4-pyrazolyl)-2-trans-propen-1-yl]-9-fluoro-2,3,4,4a,5,6-hexahydro-1H-pyrazino[1,2-a]quinoline (Isomer B)], in data set [2], the GI50 came out at 0.0101 µg/mL (≈ 0.0218 µM).
Consider `Cc1c(/C=C/CN2CCN(c3cc(F)cc(F)c3)CC2)cnn1-c1ncccc1Cl.Cl` [Example 6, 1-[1-(3-Chloro-2-pyridyl)-5-methyl-4-pyrazolyl]-3-[4-(3,5-difluorophenyl)-1-piperazinyl]-1-trans-propene Hydrochloride], for which the figures for the GI50 in data set [1] and in data set [2] were 0.00879 µg/mL and 0.0347 µg/mL, respectively.
For the molecule `Cc1c(/C=C/CN2CCN3c4cc(F)ccc4CCC3C2)cnn1-c1cc(N(C)C)nc(N)n1.Cl` (single isomer, unassigned; isomer a) [Example 69, 3-[3-[1-(2-Amino-6-dimethylamino-4-pyrimidinyl)-5-methyl-4-pyrazolyl]-2-trans-propen-1-yl]-9-fluoro-2,3,4,4a,5,6-hexahydro-1H-pyrazin[1,2-a]quinoline Hydrochloride (Isomer A)], the GI50 in data set [2] came out at 0.0246 µg/mL.
In the case of `CNc1cc(-n2ncc(/C=C/CN3CCN(c4cc(F)cc(F)c4)CC3)c2C)nc(N)n1.Cl` [Example 59, 1-[1-(2-Amino-6-methylamino-4-pyrimidinyl)-5-methyl-4-pyrazolyl]-3-[4-(3,5-difluorophenyl)-1-piperazinyl]-1-trans-propene Hydrochloride], in data set [2], the GI50 was found to be 0.011 µg/mL.
On to `Cc1c(/C=C/CN2CCN3c4ccccc4CCC3C2)cnn1-c1cc(N(C)C)nc(N)n1` (single isomer, unassigned; isomer a) [Example 67, 3-[3-[1-(2-Amino-6-dimethylamino-4-pyrimidinyl)-5-methyl-4-pyrazolyl]-2-trans-propen-1-yl]-2,3,4,4a,5,6-hexahydro-1H-pyrazino[1,2-a]quinoline Hydrochloride (Isomer A)], for which, in data set [2], the “GI50, concentration of the compound which showed 50% inhibition on cell growth as compared with a control group, PC-12” value turned out to be 0.0662 µg/mL.
As for `Cc1c(/C=C/CN2CCN3c4ccccc4CCC3C2)cnn1-c1cc(N(C)C)nc(N)n1` (single isomer, unassigned; isomer b) [Example 68, 3-[3-[1-(2-Amino-6-dimethylamino-4-pyrimidinyl)-5-methyl-4-pyrazolyl]-2-trans-propen-1-yl]-2,3,4,4a,5,6-hexahydro-1H-pyrazino[1,2-a]quinoline Hydrochloride (Isomer B)], the “GI50, concentration of the compound which showed 50% inhibition on cell growth as compared with a control group, PC-12” value in data set [2] was determined as 0.00916 µg/mL.
Take `Cc1c(/C=C/CN2CCN(c3cc(F)cc(Cl)c3)CC2)cnn1-c1ncccc1Cl.Cl` [Example 5, 3-[4-(3-Chloro-5-fluorophenyl)-1-piperazinyl]-1-[1-(3-chloro-2-pyridyl)-5-methyl-4-pyrazolyl]-1-trans-propene Hydrochloride]: the GI50 turned out to be 0.0106 µg/mL in data set [1] and 0.0913 µg/mL in data set [2].
`Cc1c(/C=C/CN2CCN(c3cc(F)cc(F)c3)CC2)cnn1-c1nc(N)nc(N(C)C)n1.Cl` [Example 60, 1-[1-(2-Amino-4-dimethylamino-1,3,5-triazin-6-yl)-5-methyl-4-pyrazolyl]-3-[4-(3,5-difluorophenyl)-1-piperazinyl]-1-trans-propene Hydrochloride]: the GI50 in data set [2] was found to be 0.0207 µg/mL.
Consider `Cc1c(/C=C/CN2CCN(c3cc(F)cc(F)c3)CC2)cnn1-c1ncccc1I` (as salt: hydrochloride), for which the melting point is 212 to 216 °C (dec.).
